EC50 and Ki data for 14 molecules are collected here from US9951064B2, “Azaindazole compounds as inhibitors of T790M containing EGFR mutants” (Genentech, Inc., priority 2013, dated 2018).

The structures appear in SMILES notation. A value given as a limit tells only on which side of the number the result lay.

Experiment [1] concerns H1975 (EGFR T790M/L858R) cell proliferation. Kind of experiment: H1975 proliferation assay (Cell Titer-Glo). The experiment is classed as cell-based. To be noted: Homo sapiens, NCI-H1975, 72 h, NCI-H1975 cells, 72 hour incubation, read-out: H1975 antiproliferative EC50. As for the experimental part: H1975 Proliferation Assays
All cell culture reagents were purchased from Invitrogen/Gibco. Cells are cultured at 37° C. at 5% CO2 and split as recommended by ATCC.
(In general: ATP-based viability assays read luminescence as a measure of living cells.)

Experiment [2] deals with T1, phosphor-EGFR in H1975(L585R/T790M) mutant EGFR expressing cells (Homo sapiens, UniProt P00533, L858R/T790M).
T1 construct: host or cells: NCI-H1975
T1 sequence (P00533 25-1210 T790M/L858R): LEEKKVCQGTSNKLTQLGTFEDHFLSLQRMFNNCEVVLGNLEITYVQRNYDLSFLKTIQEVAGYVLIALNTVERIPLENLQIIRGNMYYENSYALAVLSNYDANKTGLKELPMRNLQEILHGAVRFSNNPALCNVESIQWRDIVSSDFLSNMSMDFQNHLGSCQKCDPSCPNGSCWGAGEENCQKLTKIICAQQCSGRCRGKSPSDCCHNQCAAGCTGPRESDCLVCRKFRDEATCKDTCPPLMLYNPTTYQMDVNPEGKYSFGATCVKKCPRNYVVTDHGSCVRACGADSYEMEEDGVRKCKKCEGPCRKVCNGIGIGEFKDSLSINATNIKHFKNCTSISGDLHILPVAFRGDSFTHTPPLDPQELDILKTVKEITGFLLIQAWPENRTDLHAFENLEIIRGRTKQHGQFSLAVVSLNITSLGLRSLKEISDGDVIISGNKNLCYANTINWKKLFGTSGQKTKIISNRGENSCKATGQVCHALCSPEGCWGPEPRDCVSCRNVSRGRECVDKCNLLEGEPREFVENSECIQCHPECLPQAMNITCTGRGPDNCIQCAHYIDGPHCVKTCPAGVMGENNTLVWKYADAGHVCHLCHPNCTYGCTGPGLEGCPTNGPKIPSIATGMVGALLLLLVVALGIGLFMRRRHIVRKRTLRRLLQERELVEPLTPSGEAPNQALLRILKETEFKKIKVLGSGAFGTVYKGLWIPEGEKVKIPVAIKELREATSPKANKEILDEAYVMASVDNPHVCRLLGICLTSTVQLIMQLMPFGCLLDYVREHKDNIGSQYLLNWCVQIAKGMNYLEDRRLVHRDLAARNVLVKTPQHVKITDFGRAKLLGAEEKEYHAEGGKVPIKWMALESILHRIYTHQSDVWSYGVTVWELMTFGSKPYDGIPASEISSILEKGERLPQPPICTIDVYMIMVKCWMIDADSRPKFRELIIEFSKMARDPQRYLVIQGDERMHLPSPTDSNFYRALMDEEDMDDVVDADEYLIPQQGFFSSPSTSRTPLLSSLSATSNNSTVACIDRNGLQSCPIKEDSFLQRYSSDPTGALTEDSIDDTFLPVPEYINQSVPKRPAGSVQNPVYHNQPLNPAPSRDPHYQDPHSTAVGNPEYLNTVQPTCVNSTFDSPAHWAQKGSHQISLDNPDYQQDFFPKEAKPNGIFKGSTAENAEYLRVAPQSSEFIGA
Kind of experiment: H1975 pEGFR MSD cellular assay. The format is cell-based. To be noted: NCI-H1975 cells, serum starved, 1 hour compound incubation, pEGFR Tyr1068 MSD; read-out: HI975 pEGFR EC50. Summed up: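 Phospho-EGFR read by MSD electrochemiluminescence: capture with anti-pEGFR antibody (overnight, 4° C), detection with SULFO-TAG anti-total EGFR (1 hour, room temperature). Before lysis, H1975 cells starved of serum overnight got compound for 1 hour at 37° C, 0.5% DMSO final. EC50 via four-parameter logistic regression of percent inhibition.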

For a further experiment, the target named is T2, EGFR del746-750 T790M (Homo sapiens, UniProt P00533, DEL746-750/T790M).
T2 construct: purchased Carna Biosciences 08-528
T2 sequence (P00533 with tags, fused parts or gaps DEL746-750/T790M limits assumed): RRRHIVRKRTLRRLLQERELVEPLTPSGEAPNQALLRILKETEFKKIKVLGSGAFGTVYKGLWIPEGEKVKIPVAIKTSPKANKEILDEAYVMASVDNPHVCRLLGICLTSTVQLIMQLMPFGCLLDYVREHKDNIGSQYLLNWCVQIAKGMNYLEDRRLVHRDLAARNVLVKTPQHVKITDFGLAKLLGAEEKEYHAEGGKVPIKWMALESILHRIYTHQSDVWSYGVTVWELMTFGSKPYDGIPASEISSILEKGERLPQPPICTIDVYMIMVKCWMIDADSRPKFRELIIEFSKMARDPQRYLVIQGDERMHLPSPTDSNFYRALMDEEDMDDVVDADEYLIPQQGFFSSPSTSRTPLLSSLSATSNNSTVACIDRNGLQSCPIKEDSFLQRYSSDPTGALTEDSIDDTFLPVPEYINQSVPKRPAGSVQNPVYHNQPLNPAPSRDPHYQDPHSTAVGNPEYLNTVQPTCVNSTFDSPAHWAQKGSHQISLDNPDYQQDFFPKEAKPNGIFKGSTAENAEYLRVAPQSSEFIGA
Put plainly: EGFR del746-750 T790M biochemical assay (Caliper mobility shift). Conditions: 5 μM ATP; apparent Ki (Morrison fit) converted by Cheng-Prusoff, Km of ATP 2.1 μM; read-out: EGFR(T790M/d746-750) Ki. The gist of the method: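 Caliper mobility-shift read-out, with product electrophoretically resolved from substrate and measured. Reactions were quenched with 80 mM EDTA after 30 min at 22 °C.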

The next experiment addresses T3, EGFR T790M L858R (Homo sapiens, UniProt P00533, L858R/T790M).
T3 construct: purchased Life Technologies PV4879
Put plainly: EGFR T790M L858R biochemical assay (Caliper mobility shift). To be noted: 5 μM ATP; apparent Ki (Morrison fit) converted by Cheng-Prusoff, Km of ATP 1.3 μM. The gist of the method:
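Caliper mobility-shift read-out, electrophoretic separation of substrate from product, after a 30-minute kinase reaction at 22 °C. EDTA at 80 mM terminates each reaction.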

For orientation: EC50 means the concentration needed to bring the measured effect to its halfway point.

T3 sequence (P00533 25-1210 T790M/L858R): as the sequence (P00533 25-1210 T790M/L858R) above

With `CC(C)n1nc(N2CCC(C(=O)N(C)C)C2)c2cnc(Nc3ccnc(-c4cnn(S(=O)(=O)C5CC5)c4)n3)cc21` (centres unmarked) [Example 156, 1-(6-(2-(1-(Cyclopropylsulfonyl)-1H-pyrazol-4-yl)pyrimidin-4-ylamino)-1-isopropyl-1H-pyrazolo[4,3-c]pyridin-3-yl)N,N-dimethylpyrrolidine-3-carboxamide], the concentration for a half-maximal effect (EC50) in experiment [1] was 0.163 µM; in experiment [2], 0.0392 µM. Also, the Ki at EGFR del746-750 T790M came out at 0.0008 µM; at EGFR T790M L858R, 0.0011 µM.
As to `CC(n1nc(N2CC3(COC3)C2)c2cnc(Nc3ccnc(N4CCC(C)(O)CC4)n3)cc21)C(F)(F)F` (centres unmarked) [Example 87, 4-Methyl-1-[4-[(3-[2-oxa-6-azaspiro[3.3]heptan-6-yl]-1-(1,1,1-trifluoropropan-2-yl)-1H-pyrazolo[4,3-c]pyridin-6-yl)amino]pyrimidin-2-yl]piperidin-4-ol], the EC50 in experiment [1] was found to be 3.29 µM; in experiment [2] it was 0.472 µM. For the same molecule, the Ki is 0.0114 µM on EGFR del746-750 T790M and 0.0064 µM at EGFR T790M L858R.
Regarding `CCN1CCN(c2nn(C(C)C)c3cc(Nc4ccnc(-c5cnn(S(=O)(=O)C6CC6)c5)n4)ncc23)C1=O` [Example 151, 1-(6-(2-(1-(Cyclopropylsulfonyl)-1H-pyrazol-4-yl)pyrimidin-4-ylamino)-1-isopropyl-1H-pyrazolo[4,3-c]pyridin-3-yl)-3-ethylimidazolidin-2-one], the results for the EC50 in experiment [1] and in experiment [2] were 0.929 µM and 0.363 µM, respectively. Further, the Ki at EGFR del746-750 T790M turned out to be 0.0063 µM; on EGFR T790M L858R it was 0.0087 µM.
Regarding `CC(C)n1nc(N2CCNC(=O)C2)c2cnc(Nc3ccnc(-c4cnn(S(=O)(=O)C5CC5)c4)n3)cc21` [Example 59, 4-(6-(2-(1-(cyclopropylsulfonyl)-1H-pyrazol-4-yl)pyrimidin-4-ylamino)-1-isopropyl-1H-pyrazolo[4,3-c]pyridin-3-yl)piperazin-2-one], the EC50 was 0.738 µM in experiment [1] and 0.0921 µM in experiment [2]. The Ki at EGFR del746-750 T790M was 0.0005 µM; at EGFR T790M L858R, under 0.0006 µM.
On to `CC(C)n1nc(N2CC3CCC(C2)O3)c2cnc(Nc3ccnc(-c4cnn(S(=O)(=O)C5CC5)c4)n3)cc21` [Example 73, 3-(8-Oxa-3-azabicyclo[3.2.1]octan-3-yl)-N-(2-(1-(cyclopropylsulfonyl)-1H-pyrazol-4-yl)pyrimidin-4-yl)-1-isopropyl-1H-pyrazolo[4,3-c]pyridin-6-amine], for which the EC50 was determined as 1.21 µM in experiment [1] and 0.124 µM in experiment [2]. The Ki on EGFR del746-750 T790M is 0.0031 µM; at EGFR T790M L858R, 0.0033 µM.
As for `CC(C)n1nc(N2CC(C(=O)NC3CC(O)C3)C2)c2cnc(Nc3ccnc(-c4cnn(S(=O)(=O)C5CC5)c4)n3)cc21` (centres unmarked) [Example 170, 1-(6-(2-(1-(Cyclopropylsulfonyl)-1H-pyrazol-4-yl)pyrimidin-4-ylamino)-1-isopropyl-1H-pyrazolo[4,3-c]pyridin-3-yl)-N-(3-hydroxycyclobutyl)azetidine-3-carboxamide], the results for the EC50 in experiment [1] and in experiment [2] were over 10 µM and 0.731 µM, respectively. In addition, the results for the Ki on EGFR del746-750 T790M and on EGFR T790M L858R were 0.0012 µM and 0.0014 µM, respectively.
For the molecule `CC(Nc1nn(C(C)C)c2cc(Nc3ccnc(-c4cnn(S(=O)(=O)C5CC5)c4)n3)ncc12)C(N)=O` (centres unmarked) [Example 109, 2-(6-(2-(1-(Cyclopropylsulfonyl)-1H-pyrazol-4-yl)pyrimidin-4-ylamino)-1-isopropyl-1H-pyrazolo[4,3-c]pyridin-3-ylamino)propanamide], the results for the EC50 in experiment [1] and in experiment [2] were 4.62 µM and 0.788 µM, respectively. For the same molecule, the Ki at EGFR del746-750 T790M amounted to 0.0013 µM; at EGFR T790M L858R, 0.0018 µM.
As to `CCC(C)n1nc(N2CCNC2=O)c2cnc(Nc3ccnc(OCC(C)(C)S(C)(=O)=O)n3)cc21` (racemic) [Example 99, 1-{1-sec-Butyl-6-[2-(2-methanesulfonyl-2-methylpropoxy)pyrimidin-4-ylamino]-1H-pyrazolo[4,3-c]pyridin-3-yl}imidazolidin-2-one], the EC50 in experiment [1] turned out to be 1.17 µM; in experiment [2], 0.617 µM. In addition, the figures for the Ki at EGFR del746-750 T790M and on EGFR T790M L858R were 0.0056 µM and 0.0032 µM, respectively.
On the same counts, the results for `CC[C@@H](C)n1nc(N2CC[C@@H](O)C2)c2cnc(Nc3ccnc(N4CCC5(CC4)CNC(=O)CO5)n3)cc21` (relative stereo) [Example 208, 9-(4-((1-((R*)-sec-Butyl)-3-((R)-3-hydroxypyrrolidin-1-yl)-1H-pyrazolo[4,3-c]pyridin-6-yl)amino)pyrimidin-2-yl)-1-oxa-4,9-diazaspiro[5.5]undecan-3-one] are 9.13 µM, 1.2 µM, 0.0101 µM and 0.0038 µM.
For `CC(C)n1nc(N2CC[C@@H](N)C2=O)c2cnc(Nc3ccnc(N4CCC(C)(O)CC4)n3)cc21` [Example 158, (R)-3-Amino-1-(6-(2-(4-hydroxy-4-methylpiperidin-1-yl)pyrimidin-4-ylamino)-1-isopropyl-1H-pyrazolo[4,3-c]pyridin-3-yl)pyrrolidin-2-one], the EC50 in experiment [1] was found to be 8.12 µM; in experiment [2], 1.3 µM. Moreover, the figures for the Ki at EGFR del746-750 T790M and at EGFR T790M L858R were 0.0509 µM and 0.0185 µM, respectively.
In the case of `CC(C)n1nc(N2CC(O)(C(F)(F)F)C2)c2cnc(Nc3ccnc(N4CC[C@H](O)[C@H](F)C4)n3)cc21` (racemic) [Example 129, (±)-cis-3-Fluoro-1-(4-(3-(3-hydroxy-3-(trifluoromethyl)azetidin-1-yl)-1-isopropyl-1H-pyrazolo[4,3-c]pyridin-6-ylamino)pyrimidin-2-yl)piperidin-4-ol], the EC50 amounted to 2.72 µM in experiment [1] and 0.349 µM in experiment [2]. Moreover, the results for the Ki at EGFR del746-750 T790M and at EGFR T790M L858R were 0.0063 µM and 0.0027 µM, respectively.
On the same counts, the results for `CC(C)n1nc(N2CCC(O)C2)c2cnc(Nc3ccnc(N4CC[C@@H](O)[C@@H](F)C4)n3)cc21` (single isomer, unassigned) [Example 105, (3S*,4R*)-3-fluoro-1-(4-((3-((R)-3-hydroxypyrrolidin-1-yl)-1-isopropyl-1H-pyrazolo[4,3-c]pyridin-6-yl)amino)pyrimidin-2-yl)piperidin-4-ol] are 0.213 µM, 0.129 µM, 0.0027 µM and 0.0012 µM.
On the same counts, the results for `CC[C@@H](C)n1nc(N2CC[C@@H](O)C2)c2cnc(Nc3ccnc(N4CC[C@](C)(C(N)=O)C4)n3)cc21` (relative stereo) [Example 210, (S*)-1-(4-((1-((R*)-sec-Butyl)-3-((R)-3-hydroxypyrrolidin-1-yl)-1H-pyrazolo[4,3-c]pyridin-6-yl)amino)pyrimidin-2-yl)-3-methylpyrrolidine-3-carboxamide] are 4.05 µM, 1.85 µM, 0.0021 µM and 0.0031 µM.
As for `CC(C)n1nc(N2C[C@@H](O)[C@H](F)C2)c2cnc(Nc3ccnc(N4CC[C@H](O)[C@H](F)C4)n3)cc21` (relative stereo) [Example 131, cis-3-Fluoro-1-(4-(3-(trans-3-fluoro-4-hydroxypyrrolidin-1-yl)-1-isopropyl-1H-pyrazolo[4,3-c]pyridin-6-ylamino)pyrimidin-2-yl)piperidin-4-ol], the EC50 in experiment [1] came out at 1.48 µM; in experiment [2], 0.129 µM. The figures for the Ki on EGFR del746-750 T790M and on EGFR T790M L858R were 0.0012 µM and 0.0008 µM, respectively.
